Data taken from PubChem BioAssay AID1053182 (The Scripps Research Institute Molecular Screening Center, 2014).
The source made the active and inactive calls. How the calls were made is not given here.

Target: Trace amine-associated receptor 1 (Homo sapiens) (UniProt Q96RJ0)
Experiment: agonism at human TAAR1, counter-screen – cell-based, fluorescence, MedChem round 2, counter-screen for TAAR1 antagonist project, SAR follow-up (AID 1053182)
Details: TAAR1-expressing cells, cAMP fluorescence agonist mode

Sequence of Trace amine-associated receptor 1 (Homo sapiens) (Q96RJ0 whole entry, looked up): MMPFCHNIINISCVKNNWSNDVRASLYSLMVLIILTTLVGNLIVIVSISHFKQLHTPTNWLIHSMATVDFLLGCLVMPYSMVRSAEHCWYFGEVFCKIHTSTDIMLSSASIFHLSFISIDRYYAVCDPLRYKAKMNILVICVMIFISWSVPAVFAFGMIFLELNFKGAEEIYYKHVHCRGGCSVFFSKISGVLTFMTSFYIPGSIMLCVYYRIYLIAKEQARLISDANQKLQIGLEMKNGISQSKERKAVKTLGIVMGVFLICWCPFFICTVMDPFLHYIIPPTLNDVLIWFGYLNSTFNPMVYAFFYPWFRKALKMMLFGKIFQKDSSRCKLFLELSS

Structure (SMILES) | EC50
N#Cc1c(C(F)(F)F)cc(-c2ccc(Cl)cc2)nc1SCC(=O)N1CCCCCC1 | > 29900 nM (inactive)
N#Cc1c(C(F)(F)F)cc(-c2ccc(Cl)cc2)nc1SCC(=O)N1CCCC1 | > 29900 nM (inactive)
CC(CN1CCCC1Cc1ccccc1)C(=O)c1ccc2c(c1)OCCO2 (configuration not stated) | 245 nM

Continued, values first:

EC50 | Structure (SMILES)
122 nM | COc1cc(C(=O)CCN2CCC(c3ccccc3)C2)cc(OC)c1OC (configuration not stated)
100 nM | O=C(CCN1CCC(c2ccccc2)C1)c1ccccc1 (configuration not stated)
> 29900 nM (inactive) | N#Cc1c(C(F)(F)F)cc(-c2ccc(Cl)cc2)nc1SCC(=O)Nc1ncccn1
282 nM | Cc1ccc(C(=O)CCN2CCC(c3ccccc3)C2)cc1 (configuration not stated)
